Reference: PMC10922394 (Journal of internal medicine, 2023)

Biological target: T1, rChAT (recombinant choline acetyltransferase) (Homo sapiens, UniProt P28329)
T1 sequence (P28329 119-748): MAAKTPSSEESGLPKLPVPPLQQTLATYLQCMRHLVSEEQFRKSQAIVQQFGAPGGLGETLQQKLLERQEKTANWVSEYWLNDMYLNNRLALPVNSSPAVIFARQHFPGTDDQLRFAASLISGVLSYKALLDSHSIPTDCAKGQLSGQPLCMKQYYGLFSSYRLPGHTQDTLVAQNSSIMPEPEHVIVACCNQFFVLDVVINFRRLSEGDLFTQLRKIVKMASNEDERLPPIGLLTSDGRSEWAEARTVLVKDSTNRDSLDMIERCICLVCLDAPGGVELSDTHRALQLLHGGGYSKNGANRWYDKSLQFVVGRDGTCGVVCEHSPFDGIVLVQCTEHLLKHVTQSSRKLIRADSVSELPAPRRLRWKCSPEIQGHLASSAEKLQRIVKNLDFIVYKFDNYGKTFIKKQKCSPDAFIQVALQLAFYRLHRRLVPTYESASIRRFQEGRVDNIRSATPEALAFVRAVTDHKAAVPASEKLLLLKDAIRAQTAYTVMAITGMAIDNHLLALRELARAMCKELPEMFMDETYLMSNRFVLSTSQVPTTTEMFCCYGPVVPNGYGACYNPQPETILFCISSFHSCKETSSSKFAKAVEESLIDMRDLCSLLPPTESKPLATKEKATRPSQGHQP
Assay: colorimetric ChAT assay
Assay type: biochemical

## C[N+](C)(C)CCC(=O)c1cccc2ccccc12 [alpha-NETA]
  IC50: 148 nM
